Data: ChEMBL document CHEMBL3045621, “Synthesis and Structure-activity Relationships of Herbicidal Thiophene Sulfonylurea Compounds” (J Pestic Sci, 1997)

Legend:
[1] = tested on: Oryza sativa; experiment: Toxicity in two leaf stage of Oryza sativa var. Nihonbare (rice) assessed as dose required to selectivity to Oryza sativa; assay type: organism-based; conditions: in vivo
[2] = tested on: Schoenoplectiella juncoides; experiment: Herbicidal activity against Schoenoplectiella juncoides assessed as dose required to cause sufficient herbicidal activity after 5 to 7 days; assay type: functional
[3] = tested on: Echinochloa oryzicola; experiment: Herbicidal activity against Echinochloa oryzicola assessed as dose required to cause sufficient herbicidal activity; assay type: functional
[4] = tested on: Sagittaria pygmaea; experiment: Herbicidal activity against Sagittaria pygmaea assessed as dose required to cause sufficient herbicidal activity after 5 to 7 days; assay type: functional

COc1cc(OC)nc(NC(=O)NS(=O)(=O)c2sccc2CSC#N)n1
MED [1]: 0.313 g/acre
MED [2]: 1.25 g/acre
MED [3]: 1.25 g/acre
MED [4]: 0.625 g/acre
